Laboratory results as given in US8680092B2, “Nitrogenous heterocyclic compound and medicinal use thereof” (Ono Pharmaceutical Co., Ltd., priority 2005, dated 2014).

Target: T1, CXCR4 (Homo sapiens, UniProt P61073)
T1 construct: a human T cell strain in which CXCR4 is known to be expressed; endogenous in cells; host or cells: CEM cells (human T cell strain)
Experiment: Study for inhibition of binding human SDF-1 to CEM cells
Settings: human T cell strain CEM cells, 125I-SDF-1, 4° C. for 60 minutes
From the text: As mentioned above, a more direct procedure is a screening a compound that prevents for HIV from binding to CXCR4, which is a receptor on CD4+ cell, on an assay system using HIV. However, using HIV for a large-scale screening is not practical due to its difficult handling. On the other hand, both of T cell-directed (X4) HIV-1 and SDF-1 bind to CXCR4 and therefore CXCR4 binding sites at both of HIV-side and SDF-1-side as well as SDF-1- and HIV-binding sites at the CXCR4 side may presumably have any common characteristics. […]
To human T cell strain CEM cells in a binding buffer (containing HEPES and BSA), the test compound and ^125I-SDF-1 (NEN) were added and the mixture was incubated at 4° C. for 60 minutes. […] An amount of the radioactivity bound to the CEM cells was measured using Top Count (Packard) and inhibition (%) of the test compound was calculated according to the following equation: Inhibition=(Et−Ea)/(Et−Ec)×100
Et: amount of radioactivity when the test compound is not added,
Ec: amount of radioactivity when non-radioactive SDF-1 (Pepro Tech) is added in an amount of 1000 times as much as ^125I-SDF-1 as a test compound, and
Ea: amount of radioactivity when the test compound is added.

T1 sequence (P61073 whole entry): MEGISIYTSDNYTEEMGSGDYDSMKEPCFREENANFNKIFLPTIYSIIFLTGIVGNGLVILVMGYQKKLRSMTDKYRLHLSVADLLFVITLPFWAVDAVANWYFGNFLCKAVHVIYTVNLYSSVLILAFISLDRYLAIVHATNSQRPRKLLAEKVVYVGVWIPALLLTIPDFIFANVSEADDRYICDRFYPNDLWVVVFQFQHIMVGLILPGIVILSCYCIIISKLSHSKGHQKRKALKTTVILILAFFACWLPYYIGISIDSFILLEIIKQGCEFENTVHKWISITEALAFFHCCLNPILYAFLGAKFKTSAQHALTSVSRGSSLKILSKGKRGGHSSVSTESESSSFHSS

IC50: 1.6 nM
Structure (SMILES): NCCC[C@@H]1[C@@H](Nc2nccc(N3CCCCCC3)n2)CCN1C1CCCCC1 [compound 10-2, N-[(2R,3S)-2-(3-aminopropyl)-1-cyclohexyl-3-pyrrolidinyl]-4-(1-azepanyl)-2-pyrimidinamine]
